From US9045506B2, “Diphosphonate compound and a method for preparing the same and an application of the same” (Chengdu Yunke Pharmaceutical Co., Ltd., priority 2010, dated 2015)
Marks after values point to notes of the source that are not given here.

Legend:
osteoblasts = assay: Calcium deposition assay (alizarin red method); assay type: cell-based; conditions: for calcium deposition of osteoblasts (in words): lower / low concentration; for ARS concentration / calcium nodule size: 5 d, n = 4, x ± s
Description: Next, each well is added with 1 mL extract (extract preparation: 800 mL 10% acetic acid with 200 mL anhydrous ethyl alcohol), and extracted for 30 min-45 min, kept in dark, shaken slightly, the absorbance of 450 nm wavelength is measured and recorded. […] As alizarin red S and calcium are linear correlated, the calcium deposition is evaluated according to the alizarin red S concentration.

osteoblasts MG63 = assay: Osteoblast proliferation, MTT method; assay type: cell-based; conditions: for effect on MG63 cell proliferation (in words): cocultured 72 h, P<0.05 vs control groups; for Cell proliferation (MTT method), absorbance value under 490 nm: MG63, n = 4, x ± s
osteoclasts [1] = assay: Osteoclast cell formation, counting of TRAP staining positive cells; assay type: cell-based, Japanese White Rabbit; conditions: for OC cell formation, TRAP staining positive cells counted: n = 6, x ± s
Description: (§1) The osteoclasts is cultured using a modified Chambers method, the new-born Japanese White Rabbit (1 week-age, provided by Experimental Animal Center of West China Medical Center of Sichuan University) is sacrificed by neck dislocation, and dipped in 75% ethanol for 5 min, long bones are taken out under sterile condition, and soft tissue, periosteum as well as osteoepiphysis on the bone surface are removed in D-Hanks balanced salt solution, clean the bone shaft with α-MEM 2 times, and then cut off the long bone longitudinally in α-MEM full media (containing 15% fetal calf serum, penicillin 100 U/mL, streptomycin […], 25 m MHEPES, pH 7.0-7.2), scrape the medullar cavity of the bone gently until it is clean, and use a pipette (5 mL syringe, 25 G syringe needle) to rinse the medullar cavity repeatedly with culture media, and then the rinse solution is collected and filtered with cell strainer to remove bone fragment, and centrifuged at 1000 rpm for 5 min, the precipitate is suspended by 10 mL α-MEM, a hematocytometer is used for cell counting, the cell density in suspension is adjusted to 1×10^7/mL, and inoculate the cells in 6-well plates, and co-cultured with glass slide or bone slice, after 60 min the culture media was replaced with α-MEM induction culture media (containing 15% fetal bovine serum, 10 nM 1, 25-(OH)2VitD3, penicillin 100 U/mL, streptomycin 100 μg/mL, 25 mM HEPES, pH 7.0-7.2), the culture media is replaced every 3 days.
Each group of osteoclasts is performed with tartrate-resistant acid phosphatase (TRAP) staining, observed in optical microscope, and the TRAP staining positive cells are counted.

osteoclasts [2] = assay: Osteoclastic absorption, resorption pit size on bone slices; assay type: cell-based, Japanese White Rabbit; conditions: for formation and size of resorption pit of the osteoclast: 5 days' culture, n = 6, x ± s
Description: as §1

[3] = relative to Etidronate; cited from earlier work

In the case of O=c1c2ccccc2[se]n1Cc1ccc(CC(O)(P(=O)(O)O)P(=O)(O)O)cc1 [SC-12, 4-(2-methylbenzo[d][1,2]selenazole-3 (2H)-ketone)-benzyl-1-hydroxyl-methylene diphosphonic acid], the “calcium deposition of osteoblasts (in words)” value (from here on “calcium deposition”) (osteoblasts) was “increases the calcium deposition of osteoblasts obviously”.
For O=c1c2ccccc2[se]n1-c1ccc(CCC(O)(P(=O)(O)O)P(=O)(O)O)cc1 [SC-14, 4-(3-carbonylbenzo[d][1,2]selenazole-2(3H))-phenylethyl-1-hydroxyl-methylene diphosphonic acid], the “calcium deposition” value (osteoblasts) was “increases the calcium deposition of osteoblasts obviously”.
In the case of O=c1c2cc(Cl)ccc2[se]n1-c1ccc(CC(O)(P(=O)(O)O)P(=O)(O)O)cc1 [SC-10, 4-(3-carbonyl-5-chlorobenzo[d][1,2]selenazole-2(3H))-benzyl-1-hydroxyl-methylene diphosphonic acid], the “calcium deposition” value (osteoblasts) was “increases the calcium deposition of osteoblasts obviously”.
In the case of O=c1c2ccccc2[se]n1-c1ccc(CC(P(=O)(O)O)P(=O)(O)O)cc1 [SC-1, 4-(3-carbonylbenzo[d][1,2]selenazole-2(3H))-benzyl-methylene diphosphonic acid], the “calcium deposition” value (osteoblasts) was “increases the calcium deposition of osteoblasts obviously” and the “effect on MG63 cell proliferation (in words)” value (from here on “effect”) (osteoblasts MG63; 10^−9 mol/L) was “enhance MG63 cell proliferation”.
For O=c1c2ccccc2[se]n1Cc1ccc(CC(P(=O)(O)O)P(=O)(O)O)cc1 [SC-11, 4-(2-methylbenzo[d][1,2]selenazole-3 (2H)-ketone)-benzyl-methylene diphosphonic acid], the “calcium deposition” value (osteoblasts) was “increases the calcium deposition of osteoblasts obviously”.
For NCCCC(O)(P(=O)(O)O)P(=O)(O)O [Alen, alendronate sodium, reference compound], the “formation of osteoclasts compared with blank (in words)” value (osteoclasts [1]; all concentrations) was “can inhibit the formation of osteoclasts”, the “calcium deposition” value (osteoblasts) was “not found that Alen group of low concentration can enhance the calcium deposition of osteoblasts” and the “cell proliferation activity (in words)” value (osteoblasts MG63; 10^−5, 10^−7 mol/L for 72 h, P<0.01 vs control groups) was “cell proliferation activity is inhibited in different degrees”. For the same molecule, the “influence on proliferation of MG63 cells (in words)” value (osteoblasts MG63; range of concentrations, within 48 h) was “no influence on proliferation of MG63 cells” and the “resorption pits size compared with blank (in words)” value (osteoclasts [2]; p<0.01) was “decrease obviously”.
In the case of O=c1c2ccccc2[se]n1-c1ccc(CCC(P(=O)(O)O)P(=O)(O)O)cc1 [SC-13, 4-(3-carbonylbenzo[d][1,2]selenazole-2(3H))-phenylethyl-methylenediphosphonic acid], the “calcium deposition” value (osteoblasts) was “increases the calcium deposition of osteoblasts obviously”.
For O=c1c2ccccc2[se]n1-c1ccc(CC(O)(P(=O)(O)O)P(=O)(O)O)cc1 [SC-2, 4-(3-carbonylbenzo[d][1,2]selenazole-2(3H))-benzyl-methylene-1-hydroxyl-methylene diphosphonic acid], the “calcium deposition” value (osteoblasts) was “increases the calcium deposition of osteoblasts obviously” and the “effect” value (osteoblasts MG63; 10^−9 mol/L) was “enhance MG63 cell proliferation”.
In the case of O=c1c2cc(Cl)ccc2[se]n1-c1ccc(CC(P(=O)(O)O)P(=O)(O)O)cc1 [SC-9, 4-(3-carbonyl-5-chlorobenzo[d][1,2]selenazole-2(3H))-benzyl-methylene diphosphonic acid], the “calcium deposition” value (osteoblasts) was “increases the calcium deposition of osteoblasts obviously”.
In the case of “4-(3-carbonylcyclohexano[d][1,2]selenazole-2(3H))-benzyl-1-hydroxyl-methylenediphosphonic acid [SC-8]”, the “OC cell formation, TRAP staining positive cells counted” value (shortened to “OC cell formation”) (osteoclasts [1]; 10^−5 mol/L, 3 d) was 6 ± 2, the “OC cell formation” value (osteoclasts [1]; 10^−5 mol/L, 5 d) was 9 ± 2 and the “OC cell formation” value (osteoclasts [1]; 10^−7 mol/L, 3 d) was 10 ± 2. For the same molecule, the “OC cell formation” value (osteoclasts [1]; 10^−7 mol/L, 5 d) was 15 ± 4, the “OC cell formation” value (osteoclasts [1]; 10^−9 mol/L, 3 d) was 12 ± 3 and the “OC cell formation” value (osteoclasts [1]; 10^−9 mol/L, 5 d) was 21 ± 6. It also gave an ARS concentration (osteoblasts; 10^−5 mol/L) of 309 ± 13 µg/mL, a calcium nodule size (osteoblasts; 10^−5 mol/L) of 1.32 ± 0.11 mm^2 and an ARS concentration (osteoblasts; 10^−7 mol/L) of 354 ± 23 µg/mL. For the same molecule, the calcium nodule size (osteoblasts; 10^−7 mol/L) was 1.66 ± 0.16 mm^2, the ARS concentration (osteoblasts; 10^−9 mol/L) was 395 ± 17 µg/mL and the calcium nodule size (osteoblasts; 10^−9 mol/L) was 1.96 ± 0.19* mm^2. The “Cell proliferation (MTT method), absorbance value under 490 nm” value (from here on “Cell proliferation (MTT method)”) (osteoblasts MG63; 10^−5 mol/L, 24 h) was 0.376 ± 0.009, the “Cell proliferation (MTT method)” value (osteoblasts MG63; 10^−5 mol/L, 48 h) was 0.412 ± 0.007 and the “Cell proliferation (MTT method)” value (osteoblasts MG63; 10^−5 mol/L, 72 h) was 0.342 ± 0.008. The “Cell proliferation (MTT method)” value (osteoblasts MG63; 10^−7 mol/L, 24 h) was 0.373 ± 0.010, the “Cell proliferation (MTT method)” value (osteoblasts MG63; 10^−7 mol/L, 48 h) was 0.439 ± 0.012 and the “Cell proliferation (MTT method)” value (osteoblasts MG63; 10^−7 mol/L, 72 h) was 0.709 ± 0.010. For the same molecule, the “Cell proliferation (MTT method)” value (osteoblasts MG63; 10^−9 mol/L, 24 h) was 0.355 ± 0.009, the “Cell proliferation (MTT method)” value (osteoblasts MG63; 10^−9 mol/L, 48 h) was 0.421 ± 0.008 and the “Cell proliferation (MTT method)” value (osteoblasts MG63; 10^−9 mol/L, 72 h) was 0.773 ± 0.013. The “effect” value (osteoblasts MG63; 10^−9 mol/L) was “enhance MG63 cell proliferation”, the “formation and size of resorption pit of the osteoclast” value (from here on “formation and size”) (osteoclasts [2]; 10^−5 mol/L) was 12.23 ± 3.06 and the “formation and size” value (osteoclasts [2]; 10^−7 mol/L) was 64.45 ± 8.77. For the same molecule, the “formation and size” value (osteoclasts [2]; 10^−9 mol/L) was 118.25 ± 14.73.
In the case of O=c1c2ccccc2sn1-c1ccc(CC(P(=O)(O)O)P(=O)(O)O)cc1 [SC-15, 4-(3-carbonylbenzo[d][1,2]sulfonazole-2(3H))-benzyl-methylene diphosphonic acid], the “calcium deposition” value (osteoblasts) was “increases the calcium deposition of osteoblasts obviously”.
In the case of O=P(O)(O)C(O)(Cn1ccnc1)P(=O)(O)O [Zoledronate], the “bone affinity, times stronger than Etidronate” value [3] is listed as “over 10000 times”.
